Assay results: patent US9790218B2, “Small molecule activators of calcium-activated chloride channels and methods of use” (The Regents of the University of California, priority 2011, dated 2017)

What was measured:
[1] = test system: cytoplasmic Ca^2+ in FRT cells; assay: Cytoplasmic calcium measured by Fluo-4 fluorescence; format: cell-based; settings: 10 μM activator
Description: FIG. 2A-E. Characterization of TMEM16A activators. FIG. 2A. Cytoplasmic calcium measured by Fluo-4 fluorescence. 100 μM ATP (gray line) or 10 μM of indicated TMEM16A activators were added at the arrow. FIG. 2B. Apical membrane current measured in TMEM16A-expressing FRT cells in the presence of a transepithelial chloride gradient and after basolateral membrane permeabilization. […] T16Ainh-A01 (10 μM) added where indicated. […] (right) Concentration-activation data summary (mean±S.E., n=4-6). FIG. 2C. Synergistic effect of Eact and Fact. (left and center) Representative current traces showing synergy. (right) Data summary of low doses of TMEM16A activation (mean±S.E., n=5, * P<0.05). FIG. 2D. Apical membrane current measured in FRT cells transfected with mouse TMEM16A or TMEM16B. FIG. 2E. Effect of Eact and Fact on CFTR and ENaC. (left) FRT cells expressing wild type CFTR and YFP indicator were pretreated for 5 min with 10 μM Eact and Fact. Forskolin (10 μM) added as indicated. (right) HBE cells were pre-treated for 5 min with 10 μM Eact and Fact, with amiloride (10 μM) added as indicated.
FRT cells in 96-well black-walled microplates were loaded with Fluo-4 NW per the manufacturer's protocol (Invitrogen, Carlsbad, Calif.). Fluo-4 fluorescence was measured with a FLUOstar Optima fluorescence plate reader equipped with syringe pumps and custom Fluo-4 excitation/emission filters (485/538 nm).

[2] = test system: mouse ileal smooth muscle; assay: Intestinal smooth muscle contraction, ex vivo mouse ileal segments; settings: T16Ainh-A01 10 μM
Description: FIG. 8A-C. Intestinal smooth muscle contraction. FIG. 8A. Representative traces from mouse ileal segments showing effects of T16Ainh-A01 (10 μM), carbachol (CCh, 1 μM) and Eact (10 μM). FIG. 8B. Effect of CCh (1 μM) and Eact (10 μM) following atropine (1 μM). FIG. 8C. Summary of contraction frequency (left), and resting and maximum tone (right) (mean±S.E., n=4-7, * P<0.05).
Wild type CD1 mice (age 8-10 weeks) were killed by avertin overdose (200 mg/kg). The ileum removed and washed with ice-cold HCO3^−-buffered solution. The ends of the ileal segments were tied with silk thread and connected to a force transducer. Beal segments were equilibrated for 60 min with a resting force of ˜1 mN, with changes of the bathing solution every 15 min. Tension was monitored continuously with a fixed-range precision force transducer (TSD, 125 C; Biopac, Goleta, Calif.) connected to a differential amplifier (DA 100B; Biopac). Data were recorded using MP100, Biopac digital acquisition system and analyzed using Acknowledge 3.5.7 software.
TMEM16A in expressed in the interstitial cells of Cajal, the pacemaker cells that control smooth muscle contraction dynamics in stomach and intestine (Huang et al., supra; Gomez-Pinilla et al. (2009) Am. J. Physiol. Gastrointest. Liver Physiol. 296, G1370-1381). The effect of Eact on mouse ileal smooth muscle contraction was investigated using an ex vivo intestinal preparation. […] Without wishing to be bound by theory, the constitutive TMEM16A activity in this ex vivo preparation could obscure Eact activity. To reveal Eact effects, atropine was first added to inhibit basal contractions. […] FIG. 8C summarizes data on contraction frequency, resting tone and maximal tone.

[3] = test system: CF human bronchial epithelial (CF HBE) cells; assay: Short-circuit current in CF HBE cells; format: cell-based
Description: FIG. 5A-B. Airway epithelial chloride secretion. FIG. 5A. Short-circuit current in CF HBE cells. Eact and UTP (100 μM) were added in control (left) and IL-4 (10 ng/ml, 24 h, middle) treated CF HBE cells. (right) Summary of Eact-induced, T16Ainh-A01-sensitive peak current (mean±S.E., n=6-8, * P<0.05). ENaC was inhibited by 10 μM amiloride. FIG. 5B. Eact (10 μM) and UTP (100 μM) induced CaCC Cl^− current measured in primary cultures of non-CF human tracheal gland (HTG) serous cells. (left and gmiddle) TMEM16A, CFTR and ENaC were inhibited by pretreatment with T16Ainh-A01, CFTRinh-172 and amiloride, respectively. Inset: TMEM16A immunoblot in whole cell homogenates of CF HBE and HTG cells. (right) Summary of UTP and Eact-induced peak current in the presence and absence of T16Ainh-A01 (mean±S.E., n=3, * P<0.05).
Tracheal and bronchial tissues were obtained from non-CF and CF patients following lung transplantation or from postmortem examinations performed within 24 h after death. […]
Snapwell inserts containing TMEM16A-expressing FRT, HBE, CF HBE or HTG cells were mounted in Ussing chambers (Physiologic Instruments, San Diego, Calif.). […] Apical membrane current (for FRT cells) and short-circuit current were measured using an EVC4000 Multi-Channel V/I Clamp (World Precision Instruments, Sarasota, Fla.) and recorded using PowerLab/8sp (AD Instruments, Castle Hill, Australia).

Q: For O=C(Nc1ccc(Br)cc1)c1cccc(-n2cnnn2)c1 [Fact, N-(4-bromophenyl)-3-(1H-tetrazol-1-yl)benzamide], which “effect on cytoplasmic Ca^2+” value [1] is on record?
A: did not elevate Ca^2+

Q: Which results are given for CCc1c(C)nc(SCC(=O)Nc2nc(-c3ccc(OC)cc3)cs2)[nH]c1=O [T16Ainh-A01, reference compound]?
A: spontaneous intestinal contractions at baseline [2]: inhibited; block of Eact-induced Cl^− current in IL-4 treated CF bronchial cells [3]: blocked
